Assay [1] concerns ACHN cells. Nature of the assay: Cell Titer Glo viability assay in ACHN cells. The class given is cell-based. Particulars: Homo sapiens, 144 h, 0.17 to 10,000 nM. How it is done:
ACHN renal cell carcinoma cell line (ATCC) was cultured in Minimum Essential Medium Eagle supplemented with 10% fetal calf serum (Sigma), 1% Penicillin-Streptomycin and 10 mM HEPES buffer (HyClone). Cell cultures were kept in a humidified incubator at 37° C. and 5% CO2. Cells were routinely tested for Mycoplasma contamination.
ACHN cells were seeded at a density of 400 cells per well in tissue culture treated 384 well plates (Corning Costar). After overnight incubation, cells were treated with drugs at concentrations ranging from 0.17 to 10,000 nM. Viability compared to untreated control was assessed at 144 h using Cell Titer Glo assay 2.0 (Promega).

The subject of assay [2] is Cdk1 phosphorylated on tyrosine 15. The assay can be described thus: High-content imaging of pCdk1 Y15 by immunofluorescence in ACHN cells. The class given is cell-based. Particulars: Homo sapiens, high-content imaging (IF), 4 h, 7 to 5000 nM, read-out: CDK1 Tyr15 Phosphorylation EC50 (IC50). In short, it runs like this:
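ACHN cells were treated with compounds at 7–5000 nM for 4 h, then fixed, permeabilised and immunostained for pCDK1 Y15, with DAPI as nuclear counterstain. Automated imaging gave the percentage of cells with nuclear pCDK1 Y15 positivity relative to DMSO control. EC50 values came from dose-response curves.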

The target of assay [3] is T1, recombinant human Wee1A kinase (Homo sapiens, UniProt P30291).
T1 construct: full length Wee1A kinase was expressed by baculovirus in insect cells; purchased Invitrogen PV3817; host or cells: insect cells (baculovirus)
T1 sequence (P30291 whole entry): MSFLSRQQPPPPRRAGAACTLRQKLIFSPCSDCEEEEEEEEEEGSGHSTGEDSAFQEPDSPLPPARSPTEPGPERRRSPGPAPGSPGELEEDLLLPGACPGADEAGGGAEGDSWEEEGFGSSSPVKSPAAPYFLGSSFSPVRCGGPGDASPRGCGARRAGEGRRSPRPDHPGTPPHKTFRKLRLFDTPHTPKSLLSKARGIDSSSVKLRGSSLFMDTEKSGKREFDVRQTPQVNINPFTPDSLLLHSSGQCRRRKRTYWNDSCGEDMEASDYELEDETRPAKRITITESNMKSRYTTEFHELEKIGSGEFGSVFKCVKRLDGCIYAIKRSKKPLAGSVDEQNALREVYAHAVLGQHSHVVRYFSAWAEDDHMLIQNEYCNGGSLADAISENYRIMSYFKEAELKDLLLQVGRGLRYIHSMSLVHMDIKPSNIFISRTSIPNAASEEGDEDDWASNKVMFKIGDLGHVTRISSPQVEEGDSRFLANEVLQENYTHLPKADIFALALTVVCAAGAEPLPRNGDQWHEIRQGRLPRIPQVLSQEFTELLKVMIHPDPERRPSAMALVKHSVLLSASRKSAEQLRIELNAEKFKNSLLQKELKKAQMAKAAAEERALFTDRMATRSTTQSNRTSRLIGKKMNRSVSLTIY
Nature of the assay: LanthaScreen Europium (Eu) Kinase Binding Assay, Wee1A kinase (TR-FRET tracer displacement). Particulars: 30 nM tracer 178, 5 nM Wee1A kinase, 60 minutes at room temperature. Background: Time-resolved FRET reads energy transfer from a long-lived donor to a nearby acceptor.

Bounds are passed on as bounds.

Drawing on patent US20260207618A1, “PYRIMIDINE CARBOXAMIDE COMPOUNDS” (Acrivon Therapeutics, Inc., priority 2022, published 2026), this text covers EC50 and IC50 for 29 compounds.

For orientation: EC50 means the concentration at which the effect is half-maximal. A word on the IC50: it is the concentration that gives 50% inhibition.

For the compound `Cc1cc(Nc2ncc(C(=O)Nc3c(Cl)cccc3Cl)c(OC3CC3)n2)ccc1C1CCN(C)CC1` [Compound 140, 4-cyclopropoxy-N-(2,6-dichlorophenyl)-2-((3-methyl-4-(1-methylpiperidin-4-yl)phenyl)amino)pyrimidine-5-carboxamide], the EC50 in assay [1] is not above 250 nM; in assay [2], 100 to 500 nM. The IC50 in assay [3] is not above 10 nM.

With `COc1nc(Nc2ccc(O[C@@H]3CCNC3)c(C)c2)ncc1C(=O)Nc1c(Cl)cccc1Br` [Compound 210], the EC50 fell in the range of 250 to 1000 nM in assay [1] and 100 to 500 nM in assay [2].

In the case of `COc1nc(Nc2ccc([C@H]3CCNC3)c(C)c2)ncc1C(=O)Nc1c(Cl)cccc1Br` (single isomer, unassigned) [Compound 194], the EC50 lay within 250 to 1000 nM in assay [1] and 100 to 500 nM in assay [2]. The IC50 in assay [3] was not above 10 nM.

Consider `COc1nc(Nc2ccc3c(c2)CN(C)CC3(C)C)ncc1C(=O)Nc1c(Cl)cccc1Cl` [Compound 135, N-(2,6-dichlorophenyl)-4-methoxy-2-((2,4,4-trimethyl-1,2,3,4-tetrahydroisoquinolin-7-yl)amino)pyrimidine-5-carboxamide], for which the results for the EC50 in assay [1] and in assay [2] were 250 to 1000 nM and not above 100 nM, respectively. Moreover, the 50% inhibitory concentration (IC50) in assay [3] is not above 10 nM.

Turning to `COc1nc(Nc2ccc([C@@H]3CCNC3)c(C)c2)ncc1C(=O)Nc1c(Cl)cccc1Br` (single isomer, unassigned) [Compound 195], the EC50 lay in the range of 250 to 1000 nM in assay [1] and 100 to 500 nM in assay [2]. For the same compound, the IC50 in assay [3] is not above 10 nM.

Take `C#Cc1cccc(Cl)c1NC(=O)c1cnc(Nc2ccc(C3CCN(C)CC3)c(C)c2)nc1OC` [Compound 129, N-(2-chloro-6-ethynylphenyl)-4-methoxy-2-((3-methyl-4-(1-methylpiperidin-4-yl)phenyl)amino)pyrimidine-5-carboxamide]: the half-maximal effective concentration (EC50) in assay [1] is 250 to 1000 nM; in assay [2] it was not above 100 nM. In addition, in assay [3], the half-inhibitory concentration (IC50) was not above 10 nM.

For `COc1nc(Nc2ccc(N3CCCNCC3)c(C)c2)ncc1C(=O)Nc1c(Cl)cccc1Br` [Compound 205], the concentration giving a half-maximal response (EC50) was not above 250 nM in assay [1] and 100 to 500 nM in assay [2]. Further, the IC50 in assay [3] is not above 10 nM.

As to `COc1nc(Nc2ccc(C3CCN(C)CC3)c(C)c2)ncc1C(=O)Nc1c(Cl)ccc(O)c1C` [Compound 141, N-(6-chloro-3-hydroxy-2-methylphenyl)-4-methoxy-2-((3-methyl-4-(1-methylpiperidin-4-yl)phenyl)amino)pyrimidine-5-carboxamide], the EC50 in assay [1] is not above 250 nM; in assay [2] it was not above 100 nM. For the same compound, the concentration for half-maximal inhibition (IC50) in assay [3] is not above 10 nM.

As to `COc1nc(Nc2ccc(C3CCN(C)CC3)c(C)c2)ncc1C(=O)Nc1c(Cl)cccc1C(F)(F)F` [Compound 122, N-(2-chloro-6-(trifluoromethyl)phenyl)-4-methoxy-2-((3-methyl-4-(1-methylpiperidin-4-yl)phenyl)amino)pyrimidine-5-carboxamide], the EC50 in assay [1] was 250 to 1000 nM; in assay [2], 100 to 500 nM. Moreover, in assay [3], the IC50 is not above 10 nM.

As for `CCOc1nc(Nc2cnn(CCCN(C)C)c2)ncc1C(=O)Nc1c(Cl)cccc1Br` [Compound 200, N-(2-bromo-6-chlorophenyl)-2-{1-[3-(dimethylamino)propyl]-4-pyrazolylamino}-4-ethoxy-5-pyrimidinecarboxamide], the EC50 in assay [1] is 250 to 1000 nM; in assay [2], 100 to 500 nM.

`COc1nc(Nc2ccc(C3CCN(C)CC3)c(C)c2)ncc1C(=O)Nc1c(Cl)cc(F)cc1Cl` [Compound 121, N-(2,6-dichloro-4-fluorophenyl)-4-methoxy-2-((3-methyl-4-(1-methylpiperidin-4-yl)phenyl)amino)pyrimidine-5-carboxamide]: the EC50 in assay [2] lay within 100 to 500 nM. In addition, in assay [3], the 50% inhibitory concentration (IC50) was not above 10 nM.

Take `COc1nc(Nc2ccc(N3CCN(C)CC3)c(C)c2)ncc1C(=O)Nc1c(Cl)cccc1Cl` [Compound 161]: in assay [2], the EC50 was 100 to 500 nM. In assay [3], the IC50 is not above 10 nM.

As for `COc1nc(Nc2cnn([C@H]3CCCNCC3)c2)ncc1C(=O)Nc1c(Cl)cccc1Cl` (single isomer, unassigned) [Compound 187], the EC50 in assay [2] was more than 1000 nM. Moreover, the 50% inhibitory concentration (IC50) in assay [3] was not above 10 nM.

Take `COc1cc(Nc2ncc(C(=O)Nc3c(Cl)cccc3Br)c(OC)n2)ccc1C1CCN(C)CC1` [Compound 216, N-(2-bromo-6-chlorophenyl)-4-methoxy-2-((3-methoxy-4-(1-methylpiperidin-4-yl)phenyl)amino)pyrimidine-5-carboxamide]: the EC50 in assay [2] was in the range of 100 to 500 nM. For the same compound, the IC50 in assay [3] is not above 10 nM.

For the compound `CCOc1nc(Nc2cnn([C@H](C)CNC)c2)ncc1C(=O)Nc1c(Cl)cccc1Br` [Compound 203, N-(2-bromo-6-chlorophenyl)-2-{1-[(R)-1-methyl-2-(methylamino)ethyl]-4-pyrazolylamino}-4-ethoxy-5-pyrimidinecarboxamide], in assay [2], the EC50 is more than 1000 nM. Moreover, the IC50 in assay [3] is not above 10 nM.

As for `COc1nc(Nc2cnn([C@@H]3CCCN(C)CC3)c2)ncc1C(=O)Nc1c(Cl)cccc1Cl` (single isomer, unassigned) [Compound 188], in assay [2], the EC50 was 100 to 500 nM. For the same compound, the IC50 in assay [3] was not above 10 nM.

Regarding `CCOc1nc(Nc2ccc(OC3CCN(C)CC3)c(C)c2)ncc1C(=O)Nc1c(Cl)cccc1Br` [Compound 222], in assay [2], the EC50 was 100 to 500 nM. Further, the half-inhibitory concentration (IC50) in assay [3] is not above 10 nM.

With `CN1CCN(c2ccc(Nc3ncc(C(=O)Nc4c(Cl)cccc4Cl)c(OCCO)n3)cc2)CC1` [Compound 123, N-(2,6-dichlorophenyl)-4-(2-hydroxyethoxy)-2-((4-(4-methylpiperazin-1-yl)phenyl)amino)pyrimidine-5-carboxamide], in assay [2], the EC50 was more than 1000 nM. For the same compound, in assay [3], the IC50 fell in the range of 10 to 100 nM.

For the compound `COc1nc(Nc2ccc(C3CCN(C)CC3)c(C)c2)ncc1C(=O)Nc1c(F)cc(F)cc1Cl` [Compound 127, N-(2-chloro-4,6-difluorophenyl)-4-methoxy-2-((3-methyl-4-(1-methylpiperidin-4-yl)phenyl)amino)pyrimidine-5-carboxamide], the EC50 in assay [2] is 100 to 500 nM. For the same compound, in assay [3], the IC50 was not above 10 nM.

Turning to `COc1nc(Nc2cnn(C[C@@H]3CCNC3)c2)ncc1C(=O)Nc1c(Cl)cccc1Cl` [Compound 164], in assay [2], the EC50 is more than 1000 nM. The IC50 in assay [3] was not above 10 nM.

For the compound `COc1nc(Nc2cnn([C@H]3CCCN(C)CC3)c2)ncc1C(=O)Nc1c(Cl)cccc1Cl` [Compound 189, N-2,6-dichlorophenyl-2-{1-[(S)-1-methyl-4-azepanyl]-4-pyrazolylamino}-4-methoxy-5-pyrimidinecarboxamide], the EC50 in assay [2] lay in the range of 100 to 500 nM. Further, the IC50 in assay [3] is not above 10 nM.

With `COc1nc(Nc2ccc(C3CCN(C)CC3)c(C)c2)ncc1C(=O)Nc1c(C)cccc1C(F)(F)F` [Compound 120, 4-methoxy-2-((3-methyl-4-(1-methylpiperidin-4-yl)phenyl)amino)-N-(2-methyl-6-(trifluoromethyl)phenyl)pyrimidine-5-carboxamide], the EC50 in assay [2] was more than 1000 nM. In addition, the IC50 in assay [3] was not above 10 nM.

Take `COc1nc(Nc2ccc([C@H]3CCN(C)C3)c(C)c2)ncc1C(=O)Nc1c(Cl)cccc1Br` [Compound 192]: the concentration for a half-maximal effect (EC50) in assay [2] fell in the range of 100 to 500 nM. In addition, in assay [3], the IC50 is not above 10 nM.

For `COc1nc(Nc2ccc(N3CCCN(C)CC3)cc2)ncc1C(=O)Nc1c(Cl)cccc1Br` [Compound 206, N-(2-bromo-6-chlorophenyl)-4-methoxy-2-[p-(4-methyl-1,4-diazepan-1-yl)phenylamino]-5-pyrimidinecarboxamide], in assay [2], the EC50 was 100 to 500 nM. In addition, the IC50 in assay [3] is not above 10 nM.

For `CCOc1nc(Nc2ccc(OC3CCNCC3)c(C)c2)ncc1C(=O)Nc1c(Cl)cccc1Br` [Compound 221], in assay [2], the EC50 lay within 100 to 500 nM. Besides, in assay [3], the IC50 was not above 10 nM.

With `Cc1cc(Nc2ncc(C(=O)Nc3c(Cl)cccc3Cl)c(OCC(F)(F)F)n2)ccc1C1CCN(C)CC1` [Compound 104, N-(2,6-dichlorophenyl)-2-{[3-methyl-4-(1-methylpiperidin-4-yl)phenyl]amino}-4-(2,2,2-trifluoroethoxy)pyrimidine-5-carboxamide], the EC50 in assay [2] lay within 100 to 500 nM. Moreover, the IC50 in assay [3] was not above 10 nM.

`COc1nc(Nc2ccc(C3CCN(C)CC3)c(C)c2)ncc1C(=O)Nc1ccccc1` [Compound 101, 4-methoxy-2-((3-methyl-4-(1-methylpiperidin-4-yl)phenyl)amino)-N-phenylpyrimidine-5-carboxamide]: the EC50 in assay [2] was more than 1000 nM. In addition, the IC50 in assay [3] lay in the range of 10 to 100 nM.

On to `COc1cccc(Cl)c1NC(=O)c1cnc(Nc2ccc(C3CCN(C)CC3)c(C)c2)nc1OC` [Compound 130, N-(2-chloro-6-methoxyphenyl)-4-methoxy-2-((3-methyl-4-(1-methylpiperidin-4-yl)phenyl)amino)pyrimidine-5-carboxamide], for which the EC50 in assay [2] was more than 1000 nM. Further, the IC50 in assay [3] is not above 10 nM.

As to `COc1nc(Nc2cnn(C)c2)ncc1C(=O)Nc1c(Cl)ccc(O)c1Cl` [Compound 223, N-(2,6-dichloro-3-hydroxyphenyl)-4-methoxy-2-((1-methyl-1H-pyrazol-4-yl)amino)pyrimidine-5-carboxamide], the EC50 in assay [2] was more than 1000 nM. In addition, the half-inhibitory concentration (IC50) in assay [3] is not above 10 nM.
